Legend:
[1] = system: HAP1 MTAP-deleted cell line; assay: SDMA in-cell western assay, HAP1 MTAP-deleted; assay type: cell-based; details: for IC50: Homo sapiens, HAP1, SDMA in-cell western, HAP1 MTAP-deleted; for MTAP intact/deleted ratio: SDMA in-cell western
In short: (§1)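 Readout: in-cell western detection of SDMA. Cells: HAP1 expressing endogenous MTAP and an MTAP-null HAP1 counterpart. Output: IC50.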

PRMT5 [2] = biological target: T1, PRMT5 (Homo sapiens, UniProt O14744); assay: PRMT5 biochemical IC50 assay with MTA as cofactor; details: PRMT5, MTA as cofactor; read-out: MTA IC50
T1 construct: purchased Viva (custom protein)

PRMT5 [3] = biological target: T1, PRMT5; assay: PRMT5 biochemical IC50 assay with SAM as cofactor; details: PRMT5, SAM as cofactor; read-out: SAM IC50
[4] = system: HAP1 MTAP-intact cell line; assay: SDMA in-cell western assay, HAP1 MTAP-intact; assay type: cell-based; details: Homo sapiens, HAP1, SDMA in-cell western, HAP1 MTAP-intact; read-out: MTAP HAP1 intact IC50
In short: as §1

[5] = system: HAP1 MTAP-deleted cell line; assay: Viability assay, MTAP-deleted cell line; assay type: cell-based; details: Homo sapiens, HAP1, viability assay, read-out: HAP1 MTAP deleted viability
Source text: Table 1 additionally indicates IC50 values in a viability assay for the MTAP-deleted cell line (column 10), indicating the effect of treatment with compound on cell survival.

PRMT5 [6] = biological target: T1, PRMT5; assay: PRMT5 biochemical IC50 assay with no cofactor; details: PRMT5, no cofactor
Source text: Table 1 indicates IC50 values (μM) against PRMT5 for exemplary compounds in the presence of SAM as cofactor, with no cofactor, and with MTA as cofactor, respectively (columns 4-6). […] Ki values can be calculated from the IC50 values as described in the Examples section. As detailed in the Examples section, for the assay performed in the presence of SAM, IC50=Ki×1.5 (Ki=IC50/1.5).

[7] = read-out: HAP1 MTAP deleted IC50
[8] = IC50 ratio HAP1 MTAP-intact vs HAP1 MTAP-deleted
[9] = IC50 ratio HAP1 MTAP-intact / HAP1 MTAP-deleted
[10] = read-out: HAP 1 MTAP deleted IC50

T1 sequence (O14744 whole entry): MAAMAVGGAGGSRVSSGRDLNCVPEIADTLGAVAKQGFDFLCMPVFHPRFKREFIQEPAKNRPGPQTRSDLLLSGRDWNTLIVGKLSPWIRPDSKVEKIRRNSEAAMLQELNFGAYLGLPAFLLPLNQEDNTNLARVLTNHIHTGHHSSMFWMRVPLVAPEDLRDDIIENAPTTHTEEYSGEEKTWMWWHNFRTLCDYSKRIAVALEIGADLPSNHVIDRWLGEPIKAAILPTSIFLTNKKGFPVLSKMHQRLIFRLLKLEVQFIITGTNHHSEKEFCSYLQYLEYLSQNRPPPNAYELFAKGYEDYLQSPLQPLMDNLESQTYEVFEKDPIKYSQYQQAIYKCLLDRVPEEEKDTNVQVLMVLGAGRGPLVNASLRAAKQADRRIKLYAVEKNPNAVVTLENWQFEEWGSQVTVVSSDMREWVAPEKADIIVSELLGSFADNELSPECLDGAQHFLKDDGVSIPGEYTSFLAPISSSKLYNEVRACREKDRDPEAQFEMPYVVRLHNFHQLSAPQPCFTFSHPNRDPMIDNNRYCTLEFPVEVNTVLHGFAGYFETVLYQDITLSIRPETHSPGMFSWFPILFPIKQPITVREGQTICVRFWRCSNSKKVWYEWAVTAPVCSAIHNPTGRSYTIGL
T1 sequence (Q9BQA1 whole entry partner): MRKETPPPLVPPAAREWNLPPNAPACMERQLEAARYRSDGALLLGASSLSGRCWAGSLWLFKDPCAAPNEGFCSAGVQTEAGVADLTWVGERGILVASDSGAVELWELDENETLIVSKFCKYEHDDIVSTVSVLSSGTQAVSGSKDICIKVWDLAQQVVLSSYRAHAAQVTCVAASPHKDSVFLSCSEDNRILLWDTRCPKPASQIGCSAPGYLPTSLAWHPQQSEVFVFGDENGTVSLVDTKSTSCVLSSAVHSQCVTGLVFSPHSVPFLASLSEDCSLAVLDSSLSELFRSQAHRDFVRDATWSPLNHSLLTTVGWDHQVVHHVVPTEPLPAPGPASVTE

SMILES	IC50 [1, 7] [nM]	MTAP intact/deleted ratio [1, 8]	IC50 (PRMT5 [2]) [nM]	IC50 (PRMT5 [3]) [nM]	IC50 [4] [nM]	IC50 ([5]; MTAP-deleted cell line) [µM]	IC50 (PRMT5 [6]; read-out: No Cofactor/rel IC50) [nM]	MTAP intact/deleted ratio [1, 9]	IC50 [1, 10] [nM]	IC50 (PRMT5 [6]; read-out: No Cofactor/ rel IC50) [nM]	IC50 ([5]; HAP1 MTAP-deleted) [µM]
Cc1cc(NC(=O)C(=O)N2C[C@@H](C)CC[C@@H]2c2ccc3sc(-c4cn(C)cn4)nc3c2)cnc1N [Compound 1214, N-(6-amino-5-methylpyridin-3-yl)-2-((2R,5S)-5-methyl-2-(2-(1-methyl-1H-imidazol-4-yl)benzo[d]thiazol-5-yl)piperidin-1-yl)-2-oxoacetamide]	< 100	A (an IC50 ratio greater than or equal to 10 fold)	< 50	50 to 500	100 to 1000	< 1	< 50				
C[C@@H]1CC[C@@H](c2ccc(C(F)(F)F)cc2)N(C(=O)C(=O)Nc2cncc(C(N)=O)c2)C1 (single isomer, unassigned) [Compound 508]	> 1000		> 500	> 500	> 1000	> 10	> 500	C (an IC50 ratio of less than 3 fold)			
Cc1cncc(NC(=O)C(=O)N2C[C@H](C)CC[C@H]2c2ccc3ccccc3c2)c1 (racemic) [Compound 83, rac-2-((2R,5S)-5-methyl-2-(naphthalen-2-yl)piperidin-1-yl)-N-(5-methylpyridin-3-yl)-2-oxoacetamide]			50 to 500	> 500	> 1000	> 10		C (an IC50 ratio of less than 3 fold)	> 1000	> 500	
CC1CC(C)C(c2ccccc2)N(C(=O)C(=O)Nc2cncc(C(N)=O)c2)C1 (stereo not drawn) [Compound 183, 5-(2-(3,5-dimethyl-2-phenylpiperidin-1-yl)-2-oxoacetamido)nicotinamide]	> 1000		> 500	> 500	> 1000	> 10	> 500	C (an IC50 ratio of less than 3 fold)			
CC(=O)Nc1ccc([C@H]2CC[C@H](C)CN2C(=O)C(=O)Nc2cnc(N)c(C)c2)cc1 (single isomer, unassigned) [Compound 523]	> 1000		> 500	> 500	> 1000	> 10	> 500	C (an IC50 ratio of less than 3 fold)			
CC[C@@H]1CC[C@@H](c2cn[nH]c2)N(C(=O)C(=O)Nc2cnc(N)c(C)c2)C1 (racemic) [Compound 1032, N-(6-amino-5-methyl-3-pyridyl)-2-[(2R,5S)-5-ethyl-2-(1H-pyrazol-4-yl)-1-piperidyl]-2-oxo-acetamide]			50 to 500	50 to 500	100 to 1000	1 to 10	50 to 500	B (an IC50 ratio greater than or equal to 3 fold but lower than 10 fold)	< 100		
C[C@H]1CC[C@H](c2ccc3cncn3c2)N(C(=O)C(=O)Nc2cnc(N)c(C3CC3)c2)C1 (single isomer, unassigned) [Compound 1205, N-(6-amino-5-cyclopropylpyridin-3-yl)-2-(2-(imidazo[1,5-a]pyridin-6-yl)-5-methylpiperidin-1-yl)-2-oxoacetamide]	< 100	A (an IC50 ratio greater than or equal to 10 fold)	< 50	< 50	100 to 1000	< 1	< 50				
COc1ncc(NC(=O)C(=O)N2C[C@H](C)CC[C@H]2c2ccc(-c3nccs3)cc2)cc1C(N)=O (single isomer, unassigned) [Compound 799]	> 1000		> 500	> 500	> 1000		> 500	C (an IC50 ratio of less than 3 fold)			> 10
C[C@H]1CC[C@H](c2csc3ccccc23)N(C(=O)C(=O)Nc2cncc(C(N)=O)c2)C1 (single isomer, unassigned) [Compound 466]	> 1000		> 500	> 500	> 1000	> 10	> 500	C (an IC50 ratio of less than 3 fold)			
